Legend:
C. xerosis = assay: Agar plate zone of growth inhibition; assay type: cell-based, Corynebacterium xerosis; conditions: solvent alone (100%), no C9
Protocol: (§1) Five microliters of the higher alcohol solutions were placed on the surface of a rich (Brain-heart infusion) agar plate immediately after seeding with a mono-specific bacterial or yeast culture. The plates were incubated for 24-48 hours, and, following further microbial proliferation, the diameters of the zones of growth inhibition were measured (results expressed in centimeters). In a further set of experiments, the effect of solvent type on the antimicrobial activity of the C9 alcohol was investigated. […] These solutions were tested for antimicrobial activity towards three microorganisms (M. lysodeikticus, S. mutans and Corynebacterium xerosis) using the same assay as described above.

M. lysodeikticus = assay: Agar plate zone of growth inhibition; assay type: cell-based; conditions: solvent alone (100%), no C9
Protocol: as §1, with “above. The relationship of the concentration of the C9 alcohol to its antimicrobial activity was also investigated. […] These solutions were tested in the assay described above for their ability to inhibit the growth of the bacteria M. lysodeikticus and S. mutans.” for “above.”

S. mutans = assay: Agar plate zone of growth inhibition; assay type: cell-based, Streptococcus mutans; conditions: for inhibition of S. mutans (summary): 1% in 100% ethanol
Protocol: as §1, with “The higher alcohols were tested for antimicrobial activity against Gram positive bacteria (Streptococcus mutans), Gram negative bacteria (Pseudomonas spp., Escherichia coli, […]) and the yeast Candida albicans. […] Five” for “Five”, “above. The relationship of the concentration of the C9 alcohol to its antimicrobial activity was also investigated. […] These solutions were tested in the assay described above for their ability to inhibit the growth of the bacteria M. lysodeikticus and S. mutans.” for “above.”

[1] = test system: odor formation in freshly-taken morning saliva; assay: Inhibition of in vitro odor formation by higher alcohols (saliva in decarboxylase medium); assay type: cell-based; conditions: for effect on in vitro odor formation (summary): 10-50 μl of 1% solution
Protocol: A series of test tubes were prepared, each containing 5 ml of decarboxylase medium (0.5% peptone, 0.3% yeast extract, 0.1% dextrose and 0.02% bromocresol purple). […] The tubes were incubated at 37° C. for three days. Following incubation, the odor was determined by a panel of odor judges, using the following semi-quantitative scale 0=no odor 1=very slight odor […] The higher alcohols tested were alkanols of chain length C8, C9, C10, C11, C12, C14, C16 and C18.

C. albicans = assay: Agar plate zone of growth inhibition; assay type: cell-based, Candida albicans
Protocol: (§2) The higher alcohols were tested for antimicrobial activity against Gram positive bacteria (Streptococcus mutans), Gram negative bacteria (Pseudomonas spp., Escherichia coli, […]) and the yeast Candida albicans. […] Five microliters of the higher alcohol solutions were placed on the surface of a rich (Brain-heart infusion) agar plate immediately after seeding with a mono-specific bacterial or yeast culture. The plates were incubated for 24-48 hours, and, following further microbial proliferation, the diameters of the zones of growth inhibition were measured (results expressed in centimeters).

Pseudomonas aeruginosa = assay: Agar plate zone of growth inhibition; assay type: cell-based
Protocol: as §2

E. faecalis = assay: Agar plate zone of growth inhibition; assay type: cell-based
Protocol: as §2

E. coli = assay: Agar plate zone of growth inhibition; assay type: cell-based, Escherichia coli; conditions: for inhibition of E. coli (summary): 1% in 100% ethanol
Protocol: as §2

[2] = test system: bacteria and yeast tested; assay: Agar plate growth inhibition, summary statements over the test microorganisms; assay type: cell-based; conditions: Table VI microorganisms
Protocol: as §1, with “The higher alcohols were tested for antimicrobial activity against Gram positive bacteria (Streptococcus mutans), Gram negative bacteria (Pseudomonas spp., Escherichia coli, […]) and the yeast Candida albicans. […] Five” for “Five”, “above. The relationship of the concentration of the C9 alcohol to its antimicrobial activity was also investigated. […] These solutions were tested in the assay described above for their ability to inhibit the growth of the bacteria M. lysodeikticus and S. mutans.” for “above.”

[3] = 10 μl of 1% solution, scale 0-5
[4] = 20 μl of 1% solution, scale 0-5
[5] = 30 μl of 1% solution, scale 0-5
[6] = 40 μl of 1% solution, scale 0-5
[7] = 50 μl of 1% solution (C8-C12 in 70% ethanol, C14-C18 in 100% ethanol) in 5 ml medium + 200 μl saliva, 3 days 37° C., scale 0 no odor to 5 extremely foul
[8] = 50 μl of 1% solution, scale 0-5
[9] = 5 μl of 1% solution (C8-C12 in 70% ethanol, C14-C18 in 100% ethanol)
[10] = 5 μl of 0.1% solution in 70% ethanol
[11] = 70% ethanol alone, 100 μl, scale 0-5
[12] = 70% ethanol alone, 200 μl, scale 0-5

Row | Structure (SMILES) | Odor Score (Judge 1) [1, 3] | Odor Score (Judge 2) [1, 3] | Odor Score (Judge 1) [1, 4] | Odor Score (Judge 2) [1, 4] | Odor Score (Judge 1) [1, 5] | Odor Score (Judge 2) [1, 5] | Odor Score (Judge 1) [1, 6] | Odor Score (Judge 2) [1, 6] | Odor Score (Judge 1) [1, 7] | Odor Score (Judge 2) [1, 8] | diameter of zone of growth inhibition, Pseudomonas aeruginosa (Pseudomonas aeruginosa; [9]) | diameter of zone of growth inhibition, E. coli (E. coli; [9]) | effect on microbial growth (summary) [2] | other results
1 | CC(C)O [2-propanol, reference compound] |  |  |  |  |  |  |  |  |  |  |  |  |  | diameter of zone of growth inhibition, C. xerosis (C. xerosis): 0.8 centimeters; diameter of zone of growth inhibition, M. lysodeikticus (M. lysodeikticus): 1.1 centimeters; diameter of zone of growth inhibition, S. mutans (S. mutans; solvent alone (100%), no C9): 0.9 centimeters
2 | CCCCCCCCCCO [C10, 1-decanol] | 4 | 4 | 0 | 0 | 0 | 0 | 0 | 0 | 0 | 0 | 0.8 centimeters | 0.7 centimeters | inhibit microbial growth | effect on in vitro odor formation (summary) [1]: inhibition of odor formation; diameter of zone of growth inhibition, C. albicans (C. albicans; [10]): 0.7 centimeters; diameter of zone of growth inhibition, C. albicans (C. albicans; [9]): 0.8 centimeters; diameter of zone of growth inhibition, E. coli (E. coli; [10]): 0.8 centimeters; diameter of zone of growth inhibition, Pseudomonas aeruginosa (Pseudomonas aeruginosa; [10]): 0.8 centimeters; diameter of zone of growth inhibition, E. faecalis (E. faecalis; [10]): 0.9 centimeters
3 | CCCCCCCCCCCO [C11, 1-undecanol] | 5 | 5 | 0 | 0.5 | 0 | 0 | 0 | 0 | 0 | 0 | 0.7 centimeters | 0.7 centimeters | inhibit microbial growth | effect on in vitro odor formation (summary) [1]: inhibition of odor formation; diameter of zone of growth inhibition, C. albicans (C. albicans; [10]): 0.7 centimeters; diameter of zone of growth inhibition, C. albicans (C. albicans; [9]): 0.8 centimeters; diameter of zone of growth inhibition, E. coli (E. coli; [10]): 0.7 centimeters; diameter of zone of growth inhibition, Pseudomonas aeruginosa (Pseudomonas aeruginosa; [10]): 0.4 centimeters; diameter of zone of growth inhibition, E. faecalis (E. faecalis; [10]): 1.0 centimeters
4 | N=C(NCCCCCCNC(=N)NC(=N)Nc1ccc(Cl)cc1)NC(=N)Nc1ccc(Cl)cc1.O=C(O)[C@H](O)[C@@H](O)[C@H](O)[C@H](O)CO.O=C(O)[C@H](O)[C@@H](O)[C@H](O)[C@H](O)CO [CHX, chlorhexidine digluconate, reference compound] | 2 | 1 | 0 | 0 | 0 | 0 | 0 | 0 |  |  |  |  |  | Odor Score (Judge 1) ([1]; 5 μl of 1% solution, scale 0-5): 4; Odor Score (Judge 2) ([1]; 5 μl of 1% solution, scale 0-5): 4.5
5 | CCCCCCCCCCCCCCCC[n+]1ccccc1 [CPC, cetylpyridinium chloride, reference compound] | 2 | 2.5 | 0 | 0 |  |  |  |  |  |  |  |  |  | Odor Score (Judge 1) ([1]; 5 μl of 1% solution, scale 0-5): 4; Odor Score (Judge 2) ([1]; 5 μl of 1% solution, scale 0-5): 4
6 | CCO [Ethanol, ethanol, reference compound] |  |  |  |  |  |  |  |  |  |  |  |  |  | Odor Score (Judge 1) [1, 11]: 5; Odor Score (Judge 2) [1, 11]: 4.5; Odor Score (Judge 1) [1, 12]: 4; Odor Score (Judge 2) [1, 12]: 4.5; diameter of zone of growth inhibition, E. coli (E. coli; 5 μl of 100% Ethanol alone): 1.0 centimeters; diameter of zone of growth inhibition, S. mutans (S. mutans; 5 μl of 100% Ethanol alone): + −; diameter of zone of growth inhibition, Pseudomonas aeruginosa (Pseudomonas aeruginosa; 5 μl of 70% Ethanol alone): + −
7 | OCC(O)CO [glycerol, reference compound] |  |  |  |  |  |  |  |  |  |  |  |  |  | diameter of zone of growth inhibition, C. xerosis (C. xerosis): 0.2 centimeters
8 | CO [methanol, reference compound] |  |  |  |  |  |  |  |  |  |  |  |  |  | diameter of zone of growth inhibition, C. xerosis (C. xerosis): 0.7 centimeters

The next lines start with results.

Row | Odor Score (Judge 1) [1, 3] | Odor Score (Judge 2) [1, 3] | Odor Score (Judge 1) [1, 4] | Odor Score (Judge 2) [1, 4] | Odor Score (Judge 1) [1, 5] | Odor Score (Judge 2) [1, 5] | Odor Score (Judge 1) [1, 6] | Odor Score (Judge 2) [1, 6] | Odor Score (Judge 1) [1, 7] | Odor Score (Judge 2) [1, 8] | Structure (SMILES) | diameter of zone of growth inhibition, Pseudomonas aeruginosa (Pseudomonas aeruginosa; [9]) | diameter of zone of growth inhibition, E. coli (E. coli; [9]) | effect on microbial growth (summary) [2] | other results
9 | 4 | 3 | 3 | 3 | 3 | 3 | 4 | 3 | 4 | 4 | CCCCCCCCO [C8] | 0.5 centimeters |  |  | inhibition of the yeast C. albicans (summary) (C. albicans; opaque inhibition zone on the agar plate): only partial inhibition; diameter of zone of growth inhibition, E. faecalis (E. faecalis; [9]): + −
10 | 5 | 5 | 4 | 4 | 3 | 3 | 2 | 3 | 2 | 3.5 | CCCCCCCCCCCCO [C12] | + − |  | inhibit microbial growth | diameter of zone of growth inhibition, C. albicans (C. albicans; [10]): 0.6 centimeters; diameter of zone of growth inhibition, E. coli (E. coli; [10]): 0.6 centimeters; diameter of zone of growth inhibition, Pseudomonas aeruginosa (Pseudomonas aeruginosa; [10]): + −; diameter of zone of growth inhibition, E. faecalis (E. faecalis; [9]): 0.7 centimeters
11 | 5 | 5 | 5 | 5 | 5 | 5 | 5 | 5 | 4 | 4 | CCCCCCCCCCCCCCO [C14] |  | 0.9 centimeters | inhibit microbial growth | diameter of zone of growth inhibition, S. mutans (S. mutans; [9]): 1.0 centimeters
12 | 5 | 5 | 5 | 5 | 5 | 5 | 5 | 5 | 4 | 4 | CCCCCCCCCCCCCCCCO [C16] |  | 0.7 centimeters |  | inhibition of E. coli (summary) (E. coli): moderate inhibition; inhibition of S. mutans (summary) (S. mutans): not of S. mutans; diameter of zone of growth inhibition, S. mutans (S. mutans; [9]): + −
13 | 5 | 5 | 5 | 5 | 5 | 5 | 4 | 4 | 3.5 | 4 | CCCCCCCCCCCCCCCCCCO [C18] |  | 0.8 centimeters |  | inhibition of E. coli (summary) (E. coli): moderate inhibition; inhibition of S. mutans (summary) (S. mutans): not of S. mutans; diameter of zone of growth inhibition, S. mutans (S. mutans; [9]): + −

From patent US20030175216A1, “Oral antimicrobial and anti-odor compositions” (Innoscent LTD., priority 2001, published 2003)
